Measured values taken from patent US10253368B2, “Molecular signatures of ovarian cancer” (Cedars-Sinai Medical Center, priority 2012, dated 2019).

Key:
[1] = tested on: ovarian cancer cell line OVCAR3; experiment: TGFβ1 induction of the 10 poor outcome signature genes (mRNA) in OVCAR3 cells; assay type: cell-based, human
Description: (§1) FIG. 13(A) to FIG. 13(C). Regulation of the poor outcome signature genes by TGFβ signaling. (A) Ingenuity Pathway Analysis of the 61 genes present in at least two of the three discovery signatures of poor outcome. Genes that are present in all three discovery signatures are circled in red. (B) Top upstream regulators of the 61 poor outcome genes. (C) Induction of the 10 poor outcome signature genes by TGFβ1 in the ovarian stromal cell line TRS3 and the ovarian cancer cell line OVCAR3. Cells were treated with TGFβ1 (10 ng/ml) for 48 hours (TRS3) or 1-3 hours (OVCAR3) with or without pre-treatment with the TGFβ1 receptor inhibitor, A83-01. Shown is the relative fold change of the mRNA levels compared to untreated control cells. Data are presented as the mean+/−SEM in triplicate samples. * indicates P<0.05. Data are representative of at least three independent experiments.
FIG. 26. Induction of the 10 poor outcome signature genes by TGFβ1. OVCAR3 (OV3) cells were treated with 10 ng/ml TGFβ1 (B1) for either 1 hour or 3 hours with (OV3+B1+A) or without (OV3+B1) pre-treatment with the TGFβ inhibitor, A83-01.
(§2) To validate the predicted regulation of the poor outcome genes by TGFβ1, the Inventors treated the human ovarian stromal cell line TRS3 and the ovarian cancer cell line OVCAR3 with TGFβ1 and measured mRNA expression of the 10 poor outcome genes before and after TGFβ1 treatment.
(§3) Importantly, The Inventors included the ovarian stromal cell line since many of our poor outcome genes are thought to be expressed in stromal cells. […] To further validate that this induction was mediated by TGFβ1 signaling, the Inventors measured expression of the 10 genes in cells pre-treated with the TGFβ1 receptor inhibitor A83-01 before adding TGFβ1.
To learn more about the possible upstream regulators of the signature genes, the Inventors applied Ingenuity Pathway Analysis to the 61 signature genes in FIG. 12A and identified TGFβ1, TGFβ2, TGFβ3, SMAD3, and SMAD7 as top transcription factors regulating in expression of the signature genes.

TGFβ = conditions: mouse xenografts; cited from earlier work
[2] = tested on: ovarian stromal cell line TRS3; experiment: TGFβ1 induction of the 10 poor outcome signature genes (mRNA) in TRS3 cells; assay type: cell-based, human
Description: as §1, with “Data are presented as the mean+/−SEM in triplicate samples. * indicates P<0.05. Data are representative of at least three independent experiments.” left out
as §2, §3

LOX = conditions: xenograft and transgenic mouse models; cited from earlier work
[3] = tested on: ADAM12 mRNA in TRS3 cells; experiment: Quantitative real-time PCR of ADAM12 mRNA in TRS3 cells with recombinant TGFβ1; assay type: cell-based, human; conditions: recombinant TGFβ1 10 ng/ml, 48 hours
Description: FIG. 37(A) to FIG. 37(C). ADAM12 expression in epithelial and stromal cells in patient tumors and different culture conditions. (A) Representative localization of ADAM12 protein (immunohistochemistry; brown staining) and mRNA (in situ hybridization; brown dots) in ovarian tumor sections from HGSOC patients. Size bar for both photographs=50 μm. (B) and (C) Quantitative real-time PCR of the ADAM12 mRNA in the TRS3 ovarian stromal cell line and OVCAR3 ovarian cancer cell line alone or in co-culture in the presence or absence of 10 ng/ml of recombinant TGFβ1. TRS3 stromal cells and GFP-labelled OVCAR3 cancer cells were co-cultured using an insert (insert) or in direct contact (direct) for 48 hours and sorted by FACS before RNA isolation. The top cell line on the x axis represents the cell line from which RNA was isolated. The y axis indicates 2^−ΔCt value. Data indicates mean+/−SEM.
The OVCAR3 ovarian cancer cell line was obtained from Dennis Slamon (University of California, Los Angeles) and its authenticity was confirmed by Laragen using the short tandem repeat (STR) method. […]
Total RNA was extracted using the RNeasy mini kit (Qiagen) and was reverse-transcribed to cDNA using the QuantiTect Reverse Transcription Kit (Qiagen). […] The qRT-PCR reaction was performed using an iCycler thermo cycler (Bio Rad) and the data were analyzed by the 2-ΔCT method. […]

osteosarcoma = conditions: mouse model of osteosarcoma; cited from earlier work
[4] = pre-treatment before TGFβ1 10 ng/ml

Cc1cccc(-c2nn(C(=S)Nc3ccccc3)cc2-c2ccnc3ccccc23)n1 [A83-01, reference compound]
TGFβ1-induced expression of the 10 genes in cells pre-treated with inhibitor [1, 4]: abrogated | Tumor growth (TGFβ): reduce tumor growth | TGFβ1-induced expression of the 10 genes in cells pre-treated with inhibitor [2, 4]: abrogated

N#CCCN [β-aminopropionitrile]
Tumor metastasis (LOX): inhibited

TGFβ1: recombinant TGFβ1 (Sigma), growth factor used at 10 ng/ml
mRNA expression of the 10 poor outcome genes after TGFβ1 treatment ([1]; TGFβ1 10 ng/ml, 1-3 hours, most of the 10 genes): induced | Expression of COL5A1 and SNAI2 ([1]; after 1 hour of treatment with TGFβ1): markedly induced | Expression of the remaining 8 genes ([1]; after 3 hours of treatment with TGFβ1): induced | Increase of ADAM12 levels in TRS3 cells [3]: approximately 10 fold | mRNA expression of the 10 poor outcome genes after TGFβ1 treatment ([2]; TGFβ1 10 ng/ml, 48 hours, most of the 10 genes): induced

collagenase
Uptake and distribution of monoclonal antibodies (osteosarcoma): increased
